For one molecule, IC50 and melting point results are on record in patent US8546395B2, “6-cycloamino-3-(1H-pyrrolo[2,3-b]pyridin-4-yl)imidazo[1,2-b]pyridazine derivatives, preparation thereof and therapeutic use thereof” (Sanofi, priority 2008, dated 2013).

One may read the IC50 as the concentration at which inhibition is half-maximal. A low value points to inhibition by little substance. The term melting point denotes the temperature, or range, at which the solid turns liquid.

Data set [1] addresses T1, casein kinase 1 epsilon (CK1 epsilon) (Homo sapiens, UniProt P49674).
T1 construct: Invitrogen Corporation (as an alternative)
Put plainly: Filter-plate assay of ATP-33P for CK1 epsilon inhibitors (phosphorylation of casein). Format: biochemical. The note with it: casein substrate, ATP-33P with 10 μM cold ATP, 2 hours at ambient temperature. How it is done:
The capacity of the compounds of the invention to inhibit the phosphorylation of casein by casein kinase 1 epsilon and delta may be evaluated according to the procedure described in US 2005/0131012.
Filter-Plate Assay of ATP-^33P for the Screening of CK1 Epsilon Inhibitors:
The effect of the compounds on inhibition of the phosphorylation of casein by the enzyme casein kinase 1 epsilon (CK1 epsilon) is measured, using a casein assay with filtration of ATP-^33P in vitro.
Casein kinase 1 epsilon (0.58 mg/ml) is obtained via fermentation and purification processes performed according to methods that are well known to those skilled in the art, or may also be obtained from Invitrogen Corporation™ (human CK1 epsilon).
The compounds are tested at five different concentrations so as to generate IC50 values, i.e. the concentration at which a compound is capable of inhibiting the enzymatic activity by 50%, or alternatively the percentage of inhibition at a concentration of 10 micromolar.
“U”-bottomed Falcon plates are prepared by placing 5 μL of solutions of the compounds according to the invention at concentrations of 10, 1, 0.1, 0.01 or 0.001 μM in various wells. The solutions of the compounds according to the invention at these various concentrations are prepared by diluting in a test buffer (50 mM Tris, pH 7.5, […], 2 mM DTT and 1 mM EGTA) a stock solution in DMSO at a concentration of 10 mM. Next, 5 μL of dephosphorylated casein are added to a final concentration of 0.2 μg/μL, 20 μl of CK1 epsilon to a final concentration of 3 ng/μl, and 20 μl of ATP-^33P to a final concentration of 0.02 μCi/μl mixed with cold ATP (10 μM final—approximately 2×10^6 CPM per well). The final total test volume per well is equal to 50 μl.
The “U”-bottomed Falcon® test plate mentioned above is vortexed, and then incubated at ambient temperature for 2 hours. After 2 hours, the reaction is stopped by adding an ice-cold solution of 65 μl of ATP (2 mM) prepared in test buffer.
100 μl of the reaction mixture are then transferred from the “U”-bottomed Falcon® plate into Millipore® MAPH filter plates, preimpregnated with 25 μl of ice-cold 100% TCA. […]
The plates are left to dry overnight at ambient temperature. […] The radiation emitted by each well is then measured for 2 minutes in a Packard® Topcount NXT scintillation counter, in which the values of CPM/well are measured.
The percentage inhibition of the capacity of the enzyme to phosphorylate the substrate (casein) is determined for each concentration of compound tested. These inhibition data expressed as percentages are used to calculate the IC50 value for each compound compared with the controls.
The kinetic studies determined the KM value for ATP as being 21 μM in this test system.

T1 sequence (P49674 whole entry): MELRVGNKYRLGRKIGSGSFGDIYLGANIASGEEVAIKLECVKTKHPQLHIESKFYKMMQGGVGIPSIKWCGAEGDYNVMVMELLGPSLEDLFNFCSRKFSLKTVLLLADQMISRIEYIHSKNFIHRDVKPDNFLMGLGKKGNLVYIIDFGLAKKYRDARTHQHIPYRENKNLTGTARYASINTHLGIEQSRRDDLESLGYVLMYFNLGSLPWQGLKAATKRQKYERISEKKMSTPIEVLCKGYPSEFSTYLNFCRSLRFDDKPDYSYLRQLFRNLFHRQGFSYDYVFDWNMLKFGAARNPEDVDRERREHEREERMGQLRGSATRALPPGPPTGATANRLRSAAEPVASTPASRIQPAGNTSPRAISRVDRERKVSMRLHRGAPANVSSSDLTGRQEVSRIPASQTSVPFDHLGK

`Fc1ccc(-c2nc3ccc(N4CCC(N5CCCC5)CC4)nn3c2-c2ccnc3[nH]ccc23)cc1` [Compound 36, 2-(4-Fluorophenyl)-6-(4-pyrrolidin-1-ylpiperidin-1-yl)-3-(1H-pyrrolo[2,3-b]pyridin-4-yl)imidazo[1,2-b]pyridazine] registered a melting point of 261 to 264 °C. The IC50 in data set [1] was in the range of 5 to 8 nM.
